Results as given in the kinase profiling compilation of Christmann-Franck et al. (2016).

Target: SGK1 (human) (UniProt O00141)
Experiment: Flashplate

SGK1 (human), sequence (O00141 whole entry, looked up): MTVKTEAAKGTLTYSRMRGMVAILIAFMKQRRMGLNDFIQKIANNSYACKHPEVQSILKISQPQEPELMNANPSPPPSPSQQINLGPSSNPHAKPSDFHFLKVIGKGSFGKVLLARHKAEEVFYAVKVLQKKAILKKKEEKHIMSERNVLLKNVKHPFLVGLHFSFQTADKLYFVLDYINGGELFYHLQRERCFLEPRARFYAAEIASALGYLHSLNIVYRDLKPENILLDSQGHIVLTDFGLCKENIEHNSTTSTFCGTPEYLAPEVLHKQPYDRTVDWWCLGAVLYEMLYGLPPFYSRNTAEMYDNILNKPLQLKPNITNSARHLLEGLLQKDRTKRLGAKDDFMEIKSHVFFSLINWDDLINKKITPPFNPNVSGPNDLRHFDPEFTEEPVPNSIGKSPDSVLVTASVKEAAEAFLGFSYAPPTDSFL

| Ki [µM] | Compound |
| --- | --- |
| > 10 | CC(C)(CO)CNc1nccc(-c2c(-c3ccc(F)cc3)nc3c(OCC(F)(F)F)nccn23)n1 |
| > 10 | COc1cccc(/C=C2/S/C(=N\c3ccccc3)NC2=O)c1 |
| 7.94 | O=C(Nc1ccc2[nH]ncc2c1)c1ccc(Cl)cc1 |
| > 10 | NC(=O)c1sc(-n2cnc3ccccc32)cc1OCc1ccccc1C(F)(F)F |
| 0.501 | O=c1c(NCc2ccc(Cl)c(Cl)c2)c(Nc2ccncc2)c1=O |
| > 10 | NC(=O)c1c(OCc2c(F)cc(Br)cc2F)nsc1NC(=O)NCCCCN1CCCC1 |
| > 10 | O=c1[nH]sc2c1c(=O)c1cc(F)c(NCc3ccccc3)c(F)c1n2C1CC1 |
| > 10 | Cc1nn(C)c2c1c(=O)c1cc(Cl)ccc1n2OCC(C)C |
| > 7.94 | COc1cc2c(N3CCN(C(=O)Nc4ccc(OC(C)C)cc4)CC3)ncnc2cc1OCCCN1CCCCC1 |
| 3.98 | O=C(O)c1cc2c(-c3ccccc3)cncc2s1 |
| > 6.31 | CCOc1nc(C(=O)NCc2ccc(S(C)(=O)=O)cc2)cc(N)c1C#N |
| > 10 | NC(=O)c1cccc2[nH]c(-c3cccc(NCCN4CCCC4)n3)nc12 |
| > 10 | Cc1n[nH]c2c1C(c1ccccc1F)C1=C(CC(C)(C)CC1=O)N2 (stereo not drawn) |
| 5.01 | O=C1NCc2c1cccc2-c1ccc(Nc2nc3ccccc3[nH]2)cc1 |
| > 10 | Nc1ccc(-c2cncc(OC[C@@H](N)Cc3c[nH]c4ccccc34)c2)cc1C(=O)c1ccccc1 |
| 0.2 | CCn1c(-c2nonc2N)nc2cnc(Oc3cccc(NC(=O)c4ccc(OCCN5CCOCC5)cc4)c3)cc21 |
| > 10 | Clc1cc2nn[nH]c2cc1Cl |
| > 10 | Cc1ccc(F)c(NC(=O)Nc2ccc(-c3nsc4ncnc(N)c34)cc2)c1 |
| > 10 | COc1ccc(OC)c(Nc2ccc3nnc(-c4ccccc4)n3n2)c1 |
| 0.794 | NC[C@@H](NC(=O)c1ccc(-c2ccncc2)cc1)c1ccccc1 |
| 0.316 | Cc1n[nH]c2ccc(-c3cncc(OC[C@@H](N)Cc4cccc(OC(F)(F)F)c4)c3)cc12 |
| 3.16 | Nc1ncnc2scc(-c3ccc(NC(=O)Nc4cc(C(F)(F)F)ccc4F)cc3)c12 |
| > 10 | O=C1Nc2cc(CCOc3ccc(N4CCOCC4)cc3)ccc2Nc2cc(-c3cn(Cc4cc(F)c(F)c(F)c4)c4cnccc34)ccc21 |
| > 10 | O=C(Nc1cccc(N2CCOCC2)n1)Nc1ccnc2c(C(F)(F)F)cccc12 |
| 2 | c1cc2cc(-c3ccc4cn[nH]c4c3)cnc2[nH]1 |

| Ki [µM] | Compound |
| --- | --- |
| > 10 | Nc1ncc(/C=C/C(=O)NCCCn2ccnc2)c2scc(-c3ccc(Br)cc3)c12 |
| > 10 | CC[C@@H]1C(=O)N(C)c2cnc(Nc3ccc(C(=O)NC4CCCCC4)cc3OC)nc2N1C1CCCC1 |
| > 10 | CNc1nccn2c(-c3ccnc(NCC(C)(C)CO)n3)c(-c3ccc(F)cc3)nc12 |
| 0.251 | NC(=O)c1ccc(-c2c[nH]c3nccc(Cl)c23)cc1 |
| > 10 | N#Cc1cnc(NC(=O)Nc2ccc3cc(C(=O)O)ccc3c2)cn1 |
| > 10 | CCOC(=O)c1cccc2[nH]c(-c3ccc(N4CCC(N)C4)cc3)nc12 (stereo not drawn) |
| 0.0501 | N[C@H]1CC[C@H](Nc2nccc(-c3c[nH]c4ncccc34)n2)CC1 |
| > 10 | CN(C)CCCC(=O)Nc1n[nH]c2nnc(-c3cccc(F)c3F)cc12 |
| > 10 | Cc1ccc(C(=O)Nc2ccon2)cc1Nc1ncnc2c1cnn2-c1ccccc1 |
| > 10 | NC(=O)c1cc(Cl)cc2[nH]c(-c3ccc(C4CCCNC4)cc3F)nc12 (stereo not drawn) |
| > 10 | CC(=O)N1CCN(C2CCC(n3nc(-c4ccc(NC(=O)c5cc6ccccc6n5C)cc4)c4c(N)ncnc43)CC2)CC1 (stereo not drawn) |
| > 10 | OCCCn1cnc(-c2ccc(F)cc2)c1-c1ccncc1 |
| 0.158 | CSc1cnc2c(ccc3cnccc32)c1O |
| > 10 | Nc1ncnc2scc(C(=O)Nc3ccc(NC(=O)Nc4ccccc4)cc3)c12 |
| > 10 | COc1nccc(-c2c(-c3ccc(F)cc3)ncn2C2CCNCC2)n1 |
| > 10 | Cc1n[nH]c2c1C(c1ccccc1Cl)C(C#N)=C(N)O2 (stereo not drawn) |
| > 10 | O=C(Nc1ccc2[nH]ncc2c1)c1cccc(F)c1 |
| > 7.94 | O=c1ncn2nc(Sc3ccc(F)cc3F)ccc2c1-c1c(Cl)cccc1Cl |
| 7.94 | Nc1ccc(-c2csc3c(/C=C/c4nc5ccccc5[nH]4)cnc(N)c23)cc1 |
| > 10 | Cc1cc(C)cc(NC(=O)Nc2ccc(-c3cccc4c3CNC4=O)c(C(F)(F)F)c2)c1 |
| > 10 | O=C(Nc1cccc(C(F)(F)F)n1)Nc1ccnc2c(Cl)cccc12 |
| > 10 | Cc1cc(O)ccc1-n1cc(C(N)=O)c(=O)c2ccc(-c3ccncc3)cc21 |
| 3.16 | O=C(NCC1CCCCC1)c1cc2c(-c3ccccc3)n[nH]c2s1 |
| > 10 | CC(=O)Nc1cc(N)c(C#N)c(-c2ccccc2)n1 |
| > 10 | CC(C)(C)OC(=O)n1cc(-c2cncn2C2CCCCC2)c2ccccc21 |

| Ki [µM] | Compound |
| --- | --- |
| > 10 | O=C1NCCc2[nH]c(-c3ccnc(-c4ccccc4F)c3)cc21 |
| 0.0251 | N[C@H](COc1cncc(-c2ccc3c(c2)/C(=C/c2ccco2)C(=O)N3)c1)Cc1c[nH]c2ccccc12 |
| > 10 | NC(=O)c1cc2c(-c3cc(C(F)(F)F)cc(C(F)(F)F)c3)cncc2s1 |
| 1 | Cc1cccc(Nc2nccc(Nc3c(N[C@H](C)C(C)(C)C)c(=O)c3=O)n2)c1 |
| > 10 | COc1ccc(NC(=O)Nc2ccc(-c3csc4c(-c5cnn(CCO)c5)cnc(N)c34)cc2)cc1 |
| 2.51 | CN(c1ncccc1CNc1nc(Nc2ccc3c(c2)CC(=O)N3)ncc1C(F)(F)F)S(C)(=O)=O |
| 7.94 | NCCCOc1cc2c(c(-c3ccc(Nc4nc5ccccc5o4)cc3)c1)CNC2=O |
| > 10 | C[C@H](Nc1nccc(-c2c(-c3ccc(F)cc3)nc3occn23)n1)c1ccccc1 |
| > 10 | COc1ccc(C(=O)Nc2nc3ccc(Cl)cc3s2)c(OC)c1 |
| > 10 | COc1nccn2c(-c3ccnc(NCC(C)(C)CO)n3)c(-c3ccc(F)cc3F)nc12 |
| 5.01 | NC[C@@H](O)[C@@H](O)Cn1cc(I)c2c(N)ncnc21 |
| > 10 | CNC(=O)COc1ccc(Nc2nc(Nc3ccc(C)c(S(N)(=O)=O)c3)ncc2F)cc1 |
| 7.94 | O=C(Nc1cnc2[nH]cc(-c3ccccc3)c2c1)c1cccc(F)c1F |
| 3.98 | NC(=O)c1cc2c(-c3ccc(F)cc3)cncc2s1 |
| 2 | O=c1nc(-c2ccc3[nH]ncc3c2)cc(-c2ccccc2)[nH]1 |
| > 10 | O=C(Nc1ccc(CO)cc1)c1cnn2c(-c3ccccc3)ccnc12 |
| > 7.94 | CS(=O)c1ccc(-c2nc(-c3ccc(F)cc3)c(-c3ccncc3)[nH]2)cc1 (stereo not drawn) |
| 1.26 | NS(=O)(=O)c1cccc(Nc2ncc3ccn(-c4ccccc4)c3n2)c1 |
| > 10 | O=C(Nc1ccc(-c2cccc3sncc23)cc1)Nc1ccc(F)c(C(F)(F)F)c1 |
| 3.98 | OCCNc1cc2cc(-c3cccnc3)ccc2cn1 |
| > 10 | c1ccc(COc2ccc(Nc3ncnc4ccccc34)cc2)cc1 |
| > 10 | N#Cc1ncc2nc1OCCCCCOc1cc(OCCO)c(Cl)cc1NC(=O)N2 |
| > 10 | CS(=O)(=O)N(Cc1ccc2[nH]c(=O)c3cccn3c2c1)C1CC1 |
| > 10 | CCCOc1nc(NC(C)=O)cc(N)c1C#N |

| Compound | Ki [µM] |
| --- | --- |
| COc1ccc2c(c1)/C(=C/c1cnc[nH]1)C(O)=N2 | 1 |
| N[C@H](COc1cncc(-c2ccc(F)cc2)c1)Cc1c[nH]c2ccccc12 | > 10 |
| CN1CCC[C@H]1COc1cncc(CCc2ccccc2)c1 | > 10 |
| N[C@H](COc1cc(/C=C/c2ccncc2)cnc1Cl)Cc1c[nH]c2ccccc12 | > 10 |
